Laboratory results reported in patent publication US20240166658A1, “PORPHYRIN DERIVATIVES AND USES THEREOF” (University of Tasmania, priority 2021, published 2024).

How the values were obtained:
[1] = UV-Vis host-guest titration, association constant; type: binding; details: host (9) in dichloromethane; triplicate, TBA salt and acid; Bindfit
Description: (§1) Path length of the quartz cell was 1 cm. For UV-vis titrations, a stock solution of host was prepared (2.2×10^−3 M) in dichloromethane (DCM) and serially diluted to the required concentrations. Working solutions of tetrabutylammonium (TBA) anion salts or guest molecules were prepared in the same manner Host−guest titrations used solutions of guest prepared in the working concentration of host solution, according to the procedure of Thordarson, 2011.
(§2) UV-vis spectroscopic host−guest titrations were performed in accordance with the methodologies of Thordarson, 2011. Solutions of host in dichloromethane were prepared. Solutions of guest were then prepared in the host solution. Aliquots of guest in host solution were added to host solution and sequentially analysed until a known molar equivalent of guest was added. The amount of guest added per aliquot was ascertained by a preliminary screening experiment; strong association constants required smaller molar equivalents so more information could be collected. By way of example, host (9) responded to 0.1 molar equivalent of PFBA strongly, so an addition of 1 molar equivalent of PFBA would result in a loss of information. The inverse is true for weaker binding interactions. […]
(§3) A host solution of host (9) in dichloromethane was monitored using UV-Vis analysis as 0.5-10 equivalents of each PFAS was added. […]

[2] = UV-Vis host-guest titration, association constant; type: binding; details: host (9) in dichloromethane; triplicate, TBA salt and acid; Bindfit; remark: listed apart in the source
Description: as §1, §2, §3

[3] = UV-Vis host-guest titration, association constant; type: binding; details: host (9) in dichloromethane; triplicate, TBA salt and acid; Bindfit; remark: listed apart in the source
Description: as §1, §2, §3

[4] = Colorimetric matching of mixed PFCA samples, high concentration
Description: The present inventors investigated the colorimetric responses for host (12) with “high” concentrations of PFCA (where [host]<[guest]), and “low” concentrations of PFCA (where [host]>[guest]). Generally, RGB response values will increase with increasing concentrations of PFCA until the host has been saturated; beyond the saturation limit, RGB response values are similar. When there was an excess of guest, the response values could only be used as a threshold indication for PFCA concentrations.
RGB response curves were established by combining solutions of host (12) (5.01×10^−6 M) with solutions of PFOA (0-16 ppm, 3.86×10^−5 M) in dichloromethane. […] Thus, when establishing a calibration curve, the relative proportion of free host to host−PFCA complex limiting the variability of colour response must be considered for the application.
For the “high” PFCA concentration experiment, the PFOA generated calibration curve (y=0.0401 ln(x)+0.2366, R^2=0.9677) (FIG. 17) begins to level out at ca. 2 ppm. Above that concentration, the RGB response values are difficult to differentiate.

[5] = Colorimetric matching of mixed PFCA samples, low concentration
Description: In the “low” PFCA concentration experiment, the RGB response values had the greatest rate of change from 0-40 ppb PFOA and appeared to level out between 40-80 ppb PFOA. In that instance, the regression was fit for a host : guest ratio of 0-0.8. To probe the sensor's response to a mixture of PFCAs, samples containing combinations of PFHxA, PFHpA, and PFDA in dichloromethane (7-28 ppb) were prepared and the RGB responses were collected. The PFCA concentrations for the samples were predicted using the PFOA regression (y=0.0591 ln(x)+0.037, R^2=0.9771).
The lowest concentration PFCA sample (7 ppb) was predicted to be ca. 11 ppb (58% error) from the PFOA regression, whilst the higher concentration mixed PFCA samples (14.1 and 28.8 ppb) were predicted to be ca. 16 and 23 ppb (17 and 18% error respectively). Thus, host (12) may be coupled with a phone camera to estimate mixed PFCA concentrations from RGB data with <20% error, or used visually for threshold detection of total PFCA concentrations above 10 ppb.

[6] = Colorimetric matching of a PFCA sample, organic; details: CIE76
Description: To probe the sensitivity of this technique visually, a colour chart based on the response of host (12) to known concentrations of PFOA was tested against another PFCA. The PFCA was chosen to be PFHxA, as PFOA was used for the calibration process. Samples of PFHxA (4 ppm) were prepared and combined with host (12). The average colour from triplicate experiments was compared to a calibration chart. The RGB values for host (12) were collected at six concentrations of PFOA. To make a direct comparison to the 4 ppm PFHxA sample, a colour chart was generated by fitting four colour points between the measured values for 0 and 5 ppm of PFOA. The generated RGB value for the 4 ppm PFOA was then compared to the measured RGB value for the 4 ppm PFHxA sample. […] The 3 and 5 ppm PFOA colours had ΔE values of 10.3 and 9.5 respectively, making the 4 ppm colour the most suitable match.

Row | SMILES | K value (averaged association constant Ka) [1] | K value (averaged association constant Ka) [2] | K value (averaged association constant Ka) [3] | ΔE ([4]; 15 vs 3 ppm PFCA sample) | ΔE ([4]; 15 vs 12 ppm PFCA sample) | [PFCA]predicted from PFOA regression ([4]; sample measured 0.20 ppm) [ppm] | average ΔE of mixed PFCA samples vs host solution ([5]; 7-28 ppb) | concentration predicted from PFOA regression ([5]; 7 ppb PFCA sample) | concentration predicted from PFOA regression ([5]; 14.1 ppb mixed PFCA sample) | concentration predicted from PFOA regression ([5]; 28.8 ppb mixed PFCA sample) [ppb] | ΔE (Host − PFCA) ([5]; PFCAs 7 ppb) | ΔE (Host − PFCA) ([5]; PFCAs 14 ppb) | ΔE (Host − PFCA) ([5]; PFCAs 28 ppb) | ΔE, PFOA chart colour vs 4 ppm PFHxA sample ([6]; 3 ppm PFOA colour) | ΔE, PFOA chart colour vs 4 ppm PFHxA sample ([6]; 4 ppm PFOA colour) | ΔE, PFOA chart colour vs 4 ppm PFHxA sample ([6]; 5 ppm PFOA colour)
1 | O=C(Nc1ccccc1-c1c2nc(c(-c3ccccc3NC(=O)C(F)(F)C(F)(F)C(F)(F)C(F)(F)C(F)(F)C(F)(F)C(F)(F)F)c3ccc([nH]3)c(-c3ccccc3NC(=O)C(F)(F)C(F)(F)C(F)(F)C(F)(F)C(F)(F)C(F)(F)C(F)(F)F)c3nc(c(-c4ccccc4NC(=O)C(F)(F)C(F)(F)C(F)(F)C(F)(F)C(F)(F)C(F)(F)C(F)(F)F)c4ccc1[nH]4)C=C3)C=C2)C(F)(F)C(F)(F)C(F)(F)C(F)(F)C(F)(F)C(F)(F)C(F)(F)F [host (9), α,α,α,α-5,10,15,20-tetrakis(2-(pentadecafluorooctanoylamino)phenyl)porphyrin] | 23968 | 392106 | 12999 |  |  |  |  |  |  |  |  |  |  |  |  | 
2 | O=C(Nc1ccccc1-c1c2nc(c(-c3ccccc3NC(=O)C(F)(F)C(F)(F)C(F)(F)C(F)(F)C(F)(F)C(F)(F)C(F)(F)C(F)(F)C(F)(F)C(F)(F)C(F)(F)F)c3ccc([nH]3)c(-c3ccccc3NC(=O)C(F)(F)C(F)(F)C(F)(F)C(F)(F)C(F)(F)C(F)(F)C(F)(F)C(F)(F)C(F)(F)C(F)(F)C(F)(F)F)c3nc(c(-c4ccccc4NC(=O)C(F)(F)C(F)(F)C(F)(F)C(F)(F)C(F)(F)C(F)(F)C(F)(F)C(F)(F)C(F)(F)C(F)(F)C(F)(F)F)c4ccc1[nH]4)C=C3)C=C2)C(F)(F)C(F)(F)C(F)(F)C(F)(F)C(F)(F)C(F)(F)C(F)(F)C(F)(F)C(F)(F)C(F)(F)C(F)(F)F [host (12), α,α,α,α-5,10,15,20-tetrakis(2-(tricosafluorododecanoylamino)phenyl) porphyrin] |  |  |  | 10 | 2 | 0.18 | > 10 | ca. 11 ppb | ca. 16 ppb | ~23 | 11 | 11 | 12 | 10.3 | 7.3 | 9.5
